Laboratory results from US4352944A, “Treatment of cashew nut shell liquid” (Minnesota Mining and Manufacturing Company, priority 1980, dated 1982).
Entries after “also recorded” stand apart in the source; their conditions may differ.

Legend:
[1] = Distillation of Technical CNSL treated with amines (Example 1, Table 1); conditions: for % composition of distillate: 2-me-Cardol / % composition of distillate: Cardanol / % composition of distillate: Cardol / % composition of residue: 2-me-Cardol / % composition of residue: Cardanol / % composition of residue: Cardol: short still head
Description: (§1) Technical CNSL of Brazilian origin and distilled CNSL obtained from it were used in the present work. Material of this origin tends to be richer in cardol. The average molecular weight was taken to be 306 based upon cardanol (average dienoid, m.w. 300) and cardol (m.w. 314, average trienoid). Three amines were used, namely diethylenetriamine (V), N-(2-aminoethyl)ethanolamine (VI) and diethanolamine (VII), which are structurally related. [drawing 3] Different molar proportions of the triamine (DETA) (V) were used with distilled CNSL (1.0 mole), from 0.25, 0.50 to 1.0. In the case of Technical CNSL (having more cardol initially present) the molar proportions of DETA were 1.0, 1.6 and 2.0 per mole of the CNSL. The mixtures in all cases were kept for 7 days and then distilled under high vacuum. After recovery of the amine, one fraction of cardanol which was considerably purified was collected. […] The distillation residue was still quite mobile and from this, cardol and the polymer from the original CNSL could be recovered.
In a typical experiment, technical CNSL (9.18 g) and DETA (3.09 g: 1 mole) were interacted at ambient temperature and the mixture after 7 days distilled through a short Vigreux type Claisen flask.
(§2) In the distillations reported in the following Tables 1 and 2 a Vigreux column was not used but merely a short still head section. All products were examined by gas-liquid chromatography (hereinafter GLC) on a gas chromatographic apparatus equipped with an integrator upon a 3% SE30 type column after trimethylsilylation with bis-(trimethylsilyl)acetamide in a pyridine solution. In the calculation of the results, response fractions have not been used. The peak areas as printed out by integration have been normalized (expressed in % form).
(9.18 g of Technical CNSL was used)

[2] = Distillation of distilled CNSL treated with amines (Example 1, Table 2)
Description: as §1, §2
(9.18 g distilled CNSL was used with different

[3] = Runs with different amines on distilled CNSL, GC of distillate (Example 2); conditions: 0.2 mole amine, seven days, 0.5 mm Hg, fraction 180-185° C.
Description: A series of runs was performed using different amines. 0.2 mole of the amines indicated in the table was mixed with 300 g of distilled CNSL (cardanol:cardol 90:10, 1.0 mole). When the mixture was stirred a mild exothermic reaction was noted. The mixture was allowed to stand for seven days at room temperature then distilled at 0.5 mm Hg. The major fraction (boiling at 180° to 185° C.) was analyzed by gas chromatography for cardanol and cardol.

[4] = Effect of length of time of DETA treatment (Example 3)
Description: as §1, §2
Technical CNSL was treated with DETA (1 mole proportion) and the mixture distilled as in Example 1 after it had been allowed to stand for 24 hours instead of 7 days. […] Probably an overnight procedure might well suffice.

[5] = Effectiveness of bases in cardol removal / cardol-cardanol separation (Example 7); conditions: for effect on separation / suitability, in words: general statement
[6] = determined in aqueous solution; literature values; cited from earlier work

NCCNCCN [DETA, diethylenetriamine]
cardol after distillation ([1]; 1 molar proportion, no Vigreux column, from ca 20%): ~6% | impurity in distilled cardanol by TLC ([1]; 1 mole DETA, 7 days, short Vigreux type flask): no cardanol | cardol after distillation, in words ([1]; Vigreux type column): almost zero | % composition of distillate: 2-me-Cardol ([1]; amine 1 M, 7 days): 1.9% | % composition of distillate: Cardanol ([1]; amine 1 M, 7 days): 93.0% | % composition of distillate: Cardol ([1]; amine 1 M, 7 days): 5.1% | % composition of residue: 2-me-Cardol ([1]; amine 1 M, 7 days): 3.2% | % composition of residue: Cardanol ([1]; amine 1 M, 7 days): 85.6% | % composition of residue: Cardol ([1]; amine 1 M, 7 days): 11.2% | % composition of distillate: 2-me-Cardol ([1]; amine 1.6 M, 7 days): 2.1% | % composition of distillate: Cardanol ([1]; amine 1.6 M, 7 days): 91.1% | % composition of distillate: Cardol ([1]; amine 1.6 M, 7 days): 6.8% | % composition of residue: 2-me-Cardol ([1]; amine 1.6 M, 7 days): 4.24% | % composition of residue: Cardanol ([1]; amine 1.6 M, 7 days): 75.1% | % composition of residue: Cardol ([1]; amine 1.6 M, 7 days): 21.7% | % composition of distillate: 2-me-Cardol ([1]; amine 2 M, 7 days): 1.1% | % composition of distillate: Cardanol ([1]; amine 2 M, 7 days): 93.1% | % composition of distillate: Cardol ([1]; amine 2 M, 7 days): 5.8% | % composition of residue: 2-me-Cardol ([1]; amine 2 M, 7 days): 7.6% | % composition of residue: Cardanol ([1]; amine 2 M, 7 days): 63.2% | % composition of residue: Cardol ([1]; amine 2 M, 7 days): 29.1% | % composition of distillate: 2-me-Cardol ([2]; amine 0.25 M): 0.7% | % composition of distillate: Cardanol ([2]; amine 0.25 M): 95.4% | % composition of distillate: Cardol ([2]; amine 0.25 M): 3.9% | % composition of distillate: 2-me-Cardol ([2]; amine 0.50 M): 0.4% | % composition of distillate: Cardanol ([2]; amine 0.50 M): 97.7% | % composition of distillate: Cardol ([2]; amine 0.50 M): 2.0% | % composition of distillate: 2-me-Cardol ([2]; amine 1.0 M): 2.0% | % composition of distillate: Cardanol ([2]; amine 1.0 M): 93.8% | % composition of distillate: Cardol ([2]; amine 1.0 M): 4.2% | % composition of distillate: Cardanol [3]: 98.9% | % composition of distillate: Cardol [3]: 0.0% | effectiveness of 24 hour treatment ([4]; 24 h, 1 mole proportion): quite effective | % Composition of distillate: 2-Methyl-Cardol ([4]; 24 h with DETA (1 M)): 1.6% | % composition of distillate: Cardanol ([4]; 24 h with DETA (1 M)): 91.7% | % composition of distillate: Cardol ([4]; 24 h with DETA (1 M)): 6.6% | % Composition of distillate: 2-Methyl-Cardol ([4]; 7 days with DETA (1 M)): 1.8% | % composition of distillate: Cardanol ([4]; 7 days with DETA (1 M)): 92.0% | % composition of distillate: Cardol ([4]; 7 days with DETA (1 M)): 6.2% | Effectiveness (in cardol removal) [5]: excellent | Kb [6]: 4.5 × 10^-5

OCCNCCO [Diethanolamine, diethanolamine]
% composition of distillate: 2-me-Cardol ([1]; amine 1.5 M, 7 days): 2.3% | % composition of distillate: Cardanol ([1]; amine 1.5 M, 7 days): 88.0% | % composition of distillate: Cardol ([1]; amine 1.5 M, 7 days): 9.7% | % composition of residue: 2-me-Cardol ([1]; amine 1.5 M, 7 days): 10.4% | % composition of residue: Cardanol ([1]; amine 1.5 M, 7 days): 55.7% | % composition of residue: Cardol ([1]; amine 1.5 M, 7 days): 33.9% | Effectiveness (in cardol removal) [5]: not effective; also recorded: ineffective | effect on separation / suitability, in words [5]: not effective

CCN(CC)CC [triethylamine]
Effectiveness (in cardol removal) [5]: excellent | Kb [6]: 4.5 × 10^-4

N [ammonium hydroxide]
effect on separation / suitability, in words [5]: not suitable

CCCCN [n-butylamine]
% composition of distillate: Cardanol [3]: 94.5% | % composition of distillate: Cardol [3]: 5.5% | Effectiveness (in cardol removal) [5]: not effective; also recorded: ineffective | effect on separation / suitability, in words [5]: not suitable | Kb [6]: 3.9 × 10^-4

NCCNCCO [N-(2-Aminoethyl)ethanolamine, N-(2-aminoethyl)ethanolamine]
% composition of distillate: 2-me-Cardol ([1]; amine 1.5 M, 7 days): 2.3% | % composition of distillate: Cardanol ([1]; amine 1.5 M, 7 days): 92.4% | % composition of distillate: Cardol ([1]; amine 1.5 M, 7 days): 5.3% | % composition of residue: 2-me-Cardol ([1]; amine 1.5 M, 7 days): 4.7% | % composition of residue: Cardanol ([1]; amine 1.5 M, 7 days): 75.5% | % composition of residue: Cardol ([1]; amine 1.5 M, 7 days): 19.8% | Effectiveness (in cardol removal) [5]: excellent | Kb [6]: 6.6 × 10^-5

C1CCNCC1 [Piperidine, piperidine]
% composition of distillate: Cardanol [3]: 96.1% | % composition of distillate: Cardol [3]: 2.2% | Effectiveness (in cardol removal) [5]: excellent | Kb [6]: 1.7 × 10^-3
